# According to patent US20220395608A1, “WATER SOLUBLE BIOADHESIVES” (THE GOVERNING COUNCIL OF THE UNIVERSITY OF TORONTO, priority 2019, published 2022):
# Experiments:
# [1] = system: A10 smooth muscle cell line; test: DNA mass quantification (Hoechst 33258) cytotoxicity assay, direct contact, ISO 10993-5; format: cell-based; settings: A10 cells, relative to DMEM negative control, mean ± SD, n = 4
# Protocol: (§1) Cytotoxicity Assays: In vitro cytotoxicity of adhesive formulations was assessed by direct contact with cells, according to ISO 10993-5 [35], which describes test methods to evaluate in vitro cytotoxicity of medical devices and, therefore, determine the in vitro biological response of mammalian cells using appropriate parameters. DNA mass quantification and Water-soluble tetrazolium (WST-1) assays were used to evaluate the toxicity of the formulations to a cell line. Negative and positive controls consisted of growth media with untreated cells and 5% Dimethyl sulfoxide (DMSO), respectively.
# Cell Culture and Sample Preparation: A10 smooth muscle cell line (ATCC, CRL-1476™) were cultured in Dulbecco's modified Eagle's medium (DMEM), supplemented with 100 U mL^−1 penicillin/100 μg of streptomycin and 10% fetal bovine serum in a humidified atmosphere at 37° C. with 5% C02. The medium was changed every other day, allowing the cells to grow and reach confluency. When the cells reached 80-90% confluence, they were passaged following treatment with 0.25% trypsin-EDTA solution. This procedure was repeated until the cells entered their standard cellular cycle. Samples of adhesives were pre-conditioned in an incubator with DMEM for 24 h. […]
# DNA mass quantification: At each time-point, cells were lysed with ice-cold lysis buffer (0.05% Triton X-100, 50 mM EDTA in PBS) for 1 h and tested for DNA assay as previously described. […] Then, 10 μL of cell lysate was added to the dye and read against a calf thymus DNA standard in a fluorescence microplate reader (BioTek Cytation 3, Biotek, Winooski, Vt., USA), with the excitation wavelength set at 360 nm and the emission wavelength observed at 460 nm.
# (§2) Statistical analysis: Data was analyzed using the software PASW Statistics 21.0 (SPSS Inc, Chicago, Ill., USA). Two-Way analysis of variance (ANOVA) and Tukey's multiple comparison post-hoc tests will be used to determine a statistical significance between the groups for the DNA mass quantification and WST-1 assays. […]
# [2] = system: A10 smooth muscle cell line; test: WST-1 cell viability assay, direct contact, ISO 10993-5; format: cell-based; settings: A10 cells, relative to DMEM negative control, mean ± SD, n = 4
# Protocol: as §1
# Cell Culture and Sample Preparation: A10 smooth muscle cell line (ATCC, CRL-1476™) were cultured in Dulbecco's modified Eagle's medium (DMEM), supplemented with 100 U mL^−1 penicillin/100 μg of streptomycin and 10% fetal bovine serum in a humidified atmosphere at 37° C. with 5% C02. The medium was changed every other day, allowing the cells to grow and reach confluency. When the cells reached 80-90% confluence, they were passaged following treatment with 0.25% trypsin-EDTA solution. This procedure was repeated until the cells entered their standard cellular cycle. Samples of adhesives were pre-conditioned in an incubator with DMEM for 24 h. Then, cells were seeded onto the samples, to which 200 μL of A10 suspension (approximately 25,000 cells/mL) was added. The seeded specimens were confined in the wells of a 96-well plate for 24 h, 72 h and 7 days.
# WST-1 assay: For the WST assay, after removing media and rinsing with 1× with PBS, 200 μL of DMEM was added to each well. […] The absorbance was read using a multi-mode reader (BioTek Cytation 3, Biotek, Winooski, Vt., USA) at 450 nm, with a reference wavelength of 650 nm. […]
# as §2
compound,measurement,setting,value
"C[S+](C)[O-] [5% DMSO, Dimethyl sulfoxide]",Relative DNA mass (%),[1]; 24 h,15.3 ± 5.3%
same,Relative DNA mass (%),[1]; 72 h,1.3 ± 1.9%
same,Relative DNA mass (%),[1]; 7 d,1.4 ± 1.6%
same,Relative Cell viability (%),"[2]; WST-1, 24 h",18.4 ± 0.9%
same,Relative Cell viability (%),"[2]; WST-1, 72 h",4.4 ± 1.1%
same,Relative Cell viability (%),"[2]; WST-1, 7 d",1.0 ± 0.5%
